From patent US20210228713A1, “TLR7 PEPTIDE CONJUGATES” (Apros Therapeutics, Inc., priority 2018, published 2021)
Where two headings read alike, the source gives them in different places. Residues, ends and D or L forms follow the SMILES beside them. No end group written: not given here. *: point of attachment. X1 = CCCC[C@@H](CCS(C)(=O)=O)Nc1nc(N)nc(C)c1Cc1cc(CC(=O)*)ccc1OC

Biological target: T1, human TLR7 (hTLR7) (Homo sapiens, UniProt Q9NYK1)
T1 construct: host or cells: HEK293 (HEK-Blue hTLR7)
T1 sequence (Q9NYK1 27-1049): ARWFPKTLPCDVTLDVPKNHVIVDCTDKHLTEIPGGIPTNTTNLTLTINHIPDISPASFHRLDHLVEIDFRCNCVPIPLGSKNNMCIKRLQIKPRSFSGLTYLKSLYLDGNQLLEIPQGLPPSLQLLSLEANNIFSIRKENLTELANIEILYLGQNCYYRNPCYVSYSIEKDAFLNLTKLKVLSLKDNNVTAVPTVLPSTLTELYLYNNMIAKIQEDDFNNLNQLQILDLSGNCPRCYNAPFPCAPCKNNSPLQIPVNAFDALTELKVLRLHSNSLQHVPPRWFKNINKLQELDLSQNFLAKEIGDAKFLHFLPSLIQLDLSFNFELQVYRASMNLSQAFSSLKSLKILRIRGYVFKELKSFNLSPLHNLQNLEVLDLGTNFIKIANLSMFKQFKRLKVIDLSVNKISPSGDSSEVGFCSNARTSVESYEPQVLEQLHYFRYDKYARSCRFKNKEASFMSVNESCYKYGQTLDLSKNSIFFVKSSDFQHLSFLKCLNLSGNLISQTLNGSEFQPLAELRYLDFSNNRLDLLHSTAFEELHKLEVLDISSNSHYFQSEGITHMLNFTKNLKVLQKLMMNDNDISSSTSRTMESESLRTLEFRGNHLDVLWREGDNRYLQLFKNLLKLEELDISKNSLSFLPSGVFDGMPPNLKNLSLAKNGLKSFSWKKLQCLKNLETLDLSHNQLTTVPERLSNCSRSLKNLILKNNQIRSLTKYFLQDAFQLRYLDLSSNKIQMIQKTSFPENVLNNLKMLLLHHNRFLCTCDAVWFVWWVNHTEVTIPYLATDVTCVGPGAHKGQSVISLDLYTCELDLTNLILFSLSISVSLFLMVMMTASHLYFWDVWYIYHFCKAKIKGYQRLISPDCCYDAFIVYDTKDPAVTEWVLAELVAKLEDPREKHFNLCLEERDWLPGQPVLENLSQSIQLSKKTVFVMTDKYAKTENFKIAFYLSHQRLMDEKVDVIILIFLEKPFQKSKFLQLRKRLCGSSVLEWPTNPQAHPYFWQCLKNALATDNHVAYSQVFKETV
Assay: HEK-Blue hTLR7 cell assay (NF-kB/AP-1 driven SEAP reporter)
Type: cell-based
Excerpt: HEK-Blue™ TLR7 cells were purchased from Invivogen (San Diego, Calif.). The following description was taken from the product information sheet.
“HEK-Blue™ hTLR7 cells are designed for studying the stimulation of human TLR7 (hTLR7) by monitoring the activation of NF-kB. HEK-Blue™ hTLR7 cells were obtained by co-transfection of the hTLR7 gene and an optimized secreted embryonic alkaline phosphatase (SEAP) reporter gene into HEK293 cells. The SEAP reporter gene is placed under the control of the IFN-b minimal promoter fused to five NF-kB and AP-1-binding sites. Stimulation with a TLR7 ligand activates NF-kB and AP-1 which induce the production of SEAP, which is detected by the HEK-Blue™ Detection cell culture medium.”
A typical assay protocol involved the following steps:
1. Cells were cultured according to the product information sheet.
2. 10 mM compound stock in DMSO were first diluted to 3 mM and then 3-fold serially diluted using DMSO to afford a 10-pt dilution.
3. 3 μl of the diluted DMSO were added to 57 μl HEK-Blue™ Detection media for a further 20-fold dilution.
4. 10 μl of the diluted compound in assay media were added into 40 μl cell culture (in HEK-Blue™ Detection media) in 384-well plate. Final cell concentration=8,000 cells per well.
5. The plates were incubated at 37° C. in 5% CO2 for 16 h. SEAP was determined using a spectrophotometer at 620-655 nm.

Compound | EC50 | EC50 (HEK TLR7 activity of unconjugated (naked) peptides, read-out: EC50, Peptide without Compound 1)
CCCC[C@@H](CCS(C)(=O)=O)Nc1nc(N)nc(C)c1Cc1cc(CC(=O)N[C@@H](CC(N)=O)C(=O)N[C@@H](CCCNC(=N)N)C(=O)N[C@@H](Cc2ccccc2)C(=O)N[C@H](C(=O)N[C@@H](CO)C(=O)N[C@H](C(=O)N[C@@H](Cc2ccccc2)C(=O)N[C@@H](C)C(=O)N[C@@H](CO)C(=O)NCC(=O)N2CCC[C@H]2C(=O)N[C@@H](CO)C(=O)N[C@@H](CCC(N)=O)C(=O)N[C@@H](CCCCN)C(=O)N[C@H](C(=O)N[C@@H](CCC(N)=O)C(=O)N[C@@H](CC(C)C)C(=O)N[C@H](C(=O)N[C@@H](CC(N)=O)C(=O)N[C@@H](CC(N)=O)C(=O)N[C@@H](CC(N)=O)C(=O)NCC(=O)N[C@@H](CO)C(=O)N[C@@H](Cc2c[nH]c3ccccc23)C(=O)N[C@@H](Cc2c[nH]cn2)C(=O)O)C(C)C)[C@@H](C)CC)[C@@H](C)CC)C(C)C)ccc1OC [*AP5] (X1-NRFVSIFASGPSQKIQLVNNNGSWH-OH) | 150 nM | 
LGRLMYDMYPHFMPTNLGPSEKRVW [AP8] |  | > 30000 nM
